Tests used:
[1] = test system: mice (type CD-1M (ICR) BR); assay: Feeding experiment in mice: whole body crude protein, crude fat, P/F quotient, feed intake, weight gain; assay type: in vivo; settings: 21 days; for Body fat / Body protein / P/F quotient: mice
Procedure: 1. Determination of Whole Body Crude Protein • 1) Method for determining the content of crude protein in mice from the nitrogen content, modified according to Kjeldahl (Kjeldahl, J.: Z. anal. Chem. 22, 366-382. 1883). • 2) Principle • The experimental animals were slaughtered and after removing the gastrointestinal tract, the weight of the animals was determined by weighing. The experimental animals were then shock-frozen in liquid nitrogen and homogenized. The resultant samples were subjected to wet digestion. The acidic digest was made alkaline with sodium hydroxide solution. The ammonia released was removed by distillation and collected in a defined amount of sulfuric acid, the excess of which was titrated with sodium hydroxide solution. • 3) Reagents • 3.1) Potassium sulfate, analytical grade • 3.2) Catalyst: copper(II) oxide, CuO, analytical grade, or crystalline copper sulfate, CuSO4.5H2O, analytical grade, or mercury, or mercury oxide, HgO, analytical grade. • 3.3) Sulfuric acid; analytical grade, D 1.84 • 3.4) Pumice stone, granulated, washed with hydrochloric acid and ignited • 3.5) Zinc, analytical grade, granulated • 3.6) Sulfuric acid, 0.1 N; • 3.7) Sulfuric acid, 0.5 N • 3.8) Methyl red indicator: 300 mg of methyl red are dissolved in 100 ml of ethanol, from 94 to 96% strength (VN). • 3.9) Sodium hydroxide solution, analytical grade, 40% strength (WN) • 3.10) Sodium sulfide solution, analytical grade, saturated • 3.11) Sodium thiosulfate solution, 8% strength (WN), Na2S2O3.5H2O, analytical grade • 3.12) Sodium hydroxide solution, 0.1 N; • 3.13) Sodium hydroxide solution, 0.25 N • 4) Apparatus • Digestion apparatus and distillation apparatus according to Kjeldahl (see above); • 5) Digestion • 1 g of the sample was weighed out accurately to 1 mg and placed in the flask of the digestion apparatus. 10 g of potassium sulfate […], a suitable amount of the catalyst (3.2) (from 0.3 to 0.4 g of copper oxide or from 0.9 to 1.2 g of copper sulfate or one drop of mercury or from 0.6 to 0.7 g of mercury oxide), 25 ml of sulfuric acid (3.3) and a few grains of pumice (3.4) were added and the flask contents were mixed. The flask was first heated moderately, then, with shaking from time to time, heated up to carbonization of the substance and disappearance of the foam, and finally intensively up to the uniform boiling of the liquid. Superheating of the flask walls and deposition of organic parts onto the flask walls was avoided. As soon as the solution was clear and colorless (light green when a copper-containing catalyst is used), this was kept boiling for a further 1 hour; thereafter it was allowed to cool. • 6) Distillation • With continuous swirling, from 250 to 356 ml of water were added with care, in which case the sulfates should dissolve completely. The mixture was allowed to cool; then some zinc granules (3.5) were added. Between 10 ml and 25 ml of sulfuric acid (3.6) or (3.7), depending on the expected nitrogen content, and a few drops of methyl red indicator (3.8) were added to the distillation apparatus collection flask. The flask was connected to the condenser of the distillation apparatus and its outermost end was lowered at least 1 cm deep into the liquid of the collection flask. 100 ml of sodium hydroxide solution (3.9) were slowly charged via the stopcock funnel into the distillation flask. When a mercury catalyst is used, in addition, 10 ml of sodium sulfide solution (3.10) or 25 ml of sodium thiosulfate solution (3.11) were added to the distillation flask. The flask is heated in such a manner that, in 30 min, about 150 ml of the liquid had distilled off. After the expiry of this time, the neutral reaction of the overhead distillate was controlled using litmus paper. If the reaction was alkaline, the distillation was continued. […] During the distillation operation, the contents of the collection flask were swirled from time to time and its color was observed. […]

[2] = test system: conversion of carbohydrates to fatty acids; settings: rats on a low-fat, carbohydrate-rich diet; cited from earlier work
[3] = target: T1, human cytosol malate enzyme (Homo sapiens, UniProt P48163); settings: cited from earlier work
T1 sequence (P48163 1-572): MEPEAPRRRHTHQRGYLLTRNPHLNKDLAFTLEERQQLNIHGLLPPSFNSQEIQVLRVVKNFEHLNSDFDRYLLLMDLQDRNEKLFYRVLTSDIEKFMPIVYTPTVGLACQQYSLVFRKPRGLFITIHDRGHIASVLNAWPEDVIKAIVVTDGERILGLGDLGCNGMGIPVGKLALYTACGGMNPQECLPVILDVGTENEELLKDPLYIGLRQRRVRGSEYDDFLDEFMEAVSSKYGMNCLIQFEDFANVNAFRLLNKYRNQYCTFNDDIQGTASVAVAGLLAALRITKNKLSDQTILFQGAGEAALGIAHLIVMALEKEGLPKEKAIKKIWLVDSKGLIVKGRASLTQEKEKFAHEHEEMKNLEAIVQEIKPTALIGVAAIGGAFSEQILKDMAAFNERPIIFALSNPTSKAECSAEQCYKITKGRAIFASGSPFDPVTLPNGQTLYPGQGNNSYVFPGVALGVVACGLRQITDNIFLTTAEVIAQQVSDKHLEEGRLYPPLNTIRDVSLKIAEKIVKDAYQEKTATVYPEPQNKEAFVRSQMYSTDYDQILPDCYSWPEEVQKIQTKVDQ

[4] = target: human mitochondrial malate enzyme (Homo sapiens, UniProt P23368); settings: cited from earlier work
[5] = test system: malate enzyme; settings: malate enzyme from Mucor circinelloides; cited from earlier work
[6] = test system: malate dehydrogenase; settings: malate dehydrogenase from Mucor circinelloides; cited from earlier work
[7] = test system: ATP:citrate lyase; settings: ATP:citrate lyase from Mucor circinelloides; cited from earlier work
[8] = test system: Mucor circinelloides; settings: fungus Mucor circinelloides; cited from earlier work
[9] = animals fed with tartronic acid (0.25% and 0.75% of feed) vs control

human mitochondrial malate enzyme, sequence (P23368 19-584): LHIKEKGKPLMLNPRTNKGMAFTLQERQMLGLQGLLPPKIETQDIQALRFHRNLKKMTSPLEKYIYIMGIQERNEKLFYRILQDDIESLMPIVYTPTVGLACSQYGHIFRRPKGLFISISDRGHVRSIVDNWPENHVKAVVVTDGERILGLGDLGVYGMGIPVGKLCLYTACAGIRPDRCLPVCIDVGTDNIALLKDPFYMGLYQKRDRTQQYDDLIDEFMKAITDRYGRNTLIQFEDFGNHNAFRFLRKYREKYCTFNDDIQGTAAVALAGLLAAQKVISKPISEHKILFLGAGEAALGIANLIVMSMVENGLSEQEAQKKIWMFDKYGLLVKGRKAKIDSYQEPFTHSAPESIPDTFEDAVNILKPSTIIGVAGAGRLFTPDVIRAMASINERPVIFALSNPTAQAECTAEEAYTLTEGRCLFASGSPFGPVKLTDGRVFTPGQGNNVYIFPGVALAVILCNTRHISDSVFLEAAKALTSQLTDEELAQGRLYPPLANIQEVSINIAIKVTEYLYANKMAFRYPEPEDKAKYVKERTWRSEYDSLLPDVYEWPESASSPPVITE

O=C(O)C(O)C(=O)O [Tartronic acid, tartronic acid]
Body fat ([1]; 0.25% by weight of the feed): 20.25 % by weight of body weight
Body protein ([1]; 0.25% by weight of the feed): 65.93 % by weight of body weight
P/F quotient ([1]; 0.25% by weight of the feed): 3.53
Body fat ([1]; 0.75% by weight of the feed): 20.65 % by weight of body weight
Body protein ([1]; 0.75% by weight of the feed): 66.04 % by weight of body weight
P/F quotient ([1]; 0.75% by weight of the feed): 3.28
P/F quotient, change [1, 9]: increase in the P/F quotient
PPTW (percentage protein of total weight), change [1, 9]: increase in the PPTW
effect on conversion of carbohydrates to fatty acids [2]: inhibits the conversion of carbohydrates to fatty acids
inhibitory activity on enzyme [3]: direct inhibitory activity
inhibitory activity on enzyme [4]: direct inhibitory activity
inhibitory activity on enzyme [5]: direct inhibitory activity
inhibitory activity on enzyme [6]: direct inhibitory activity
inhibitory activity on enzyme [7]: direct inhibitory activity
in vivo inhibitory activity, effect on lipid metabolism [8]: not sufficient to have a detectable effect on lipid metabolism

Source: patent US20080210174A1, “Increasing the Protein Concentration of Animal Organisms” (BASF AKTIENGESELLSCHAFT, priority 2004, published 2008)
